Literature values in patent US6344433B1, “Long-acting disinfectant and its preparation method” (priority 1999, dated 2002).

Details: crystal powder

Compound: Oc1cc(Cl)ccc1Oc1ccc(Cl)cc1Cl [HD244, 2,4,4′-trichloro-2′-hydroxy diphenyl ether]
- solubility in water: hardly soluble in water
